Consider three molecules from article PMC8655881 (Cancer research, 2021).

For one data set, the system named is OE33 cells. Particulars: read-out: EC50, OE33 colony formation and other Notch-dependent cell lines; as previously reported; cited from earlier work.
In the next data set the test system is small intestines. The data set is described as follows: PAS staining of small intestine, 5 daily treatments. The note with it: 5 daily i.p. treatments; NADI-351 up to 40 mg/kg, DBZ 10 mg/kg. Type of data set: in vivo.
Another data set has as its system hNotch1^ICD. Description: Inducible Notch1^ICD-driven luciferase reporter assay in 293A cells. The class given is cell-based, human. Particulars: read-out: IC50, inducible Notch1^ICD-responsive luciferase reporter, 24 h, normalized to cell viability. (In general: Reporter assays use an easily measured gene product as a stand-in for the process of interest.)

Where only a bound is given, the exact number is not on record here.

One may read the EC50 as the midpoint of the concentration-response curve. Take `C[C@H](NC(=O)Cc1cc(F)cc(F)c1)C(=O)N[C@H](C(=O)OC(C)(C)C)c1ccccc1` [DAPT]: the EC50 in the data set with OE33 cells was 10 to 15 µM.
As for `C[C@H](NC(=O)Cc1cc(F)cc(F)c1)C(=O)N[C@@H]1C(=O)N(C)c2ccccc2-c2ccccc21` [DBZ], in the data set with small intestines, the “GI toxicity / goblet cell metaplasia (PAS staining)” value is “induction of goblet cell metaplasia”.
By IC50 is commonly meant the concentration needed to halve the response being measured. In the case of `CCOC(=O)COc1ccc(/C=C2\SC(=S)NC2=O)cc1OC` [IMR-1], the IC50 with hNotch1^ICD was > 40 µM. The EC50 in the data set with OE33 cells is 10 to 15 µM.
